# Laboratory results taken from patent US9725442B2, “Heterocyclic derivative having PGD2 receptor antagonist activity” (Shionogi & Co., Ltd., priority 2011, dated 2017).
# Like-named read-outs stand apart in the source and are kept apart here.
# Legend:
# DP receptor = DP receptor (Homo sapiens (Human), UniProt Q13258); assay: DP inhibitory activity in human platelets (PGD2-induced cAMP increase in platelet rich plasma, HTRF); format: cell-based; conditions: IC50 of PGD2 (300 nM)-induced cAMP increase, read-out: PRP
# Protocol: Thirty milliliter of blood was drown from healthy human into a syringe preloaded with 1/9 volume of 3.8% citrate sodium. The blood was centrifuged with 180 g for 10 min at room temperature and the upper plasma layer was collected as platelet rich plasma (PRP). The PRP was transferred to plate and treated with 3-isobutyl-1-methylxanthin (IBMX; […]) for 5 min. Then the compounds of the present invention were added to the plate and after 10 min, 300 nM of PGD2 was added. The reaction was stopped with 1 mmol/l hydrogenchlolide after 2 min of PGD2 addition, and platelet was lysed by adding 12% Triton X-100. The concentration of cAMP in the supernatant of the platelet lysate was quantified using homogenous time resolved fluorescence (HTRF). Inhibition ratio was defined by cAMP increase with and without compound, and […] for each compound was calculated from inhibitory curve.
# Human DP1 receptor = Human DP1 receptor (Homo sapiens (Human), UniProt Q13258); assay: Human DP1 inhibitory activity in DP1-expressing cell (PGD2-induced cAMP); format: cell-based
# Protocol: Compounds were categorized as AA (cAMP is less than 100 nM) and A (cAMP is more than 100 nM and less than 5000 nM) as shown in Table 99 and 100.
# CRTH2 = CRTH2 (Homo sapiens (Human), UniProt Q9Y5Y4); assay: CRTH2 receptor binding inhibitory activity ([3H]-PGD2 displacement, membranes of CRTH2-expressing K562 cell); conditions: [3H]-PGD2 displacement, membrane of CRTH2-expressing K562 cell, read-out: Ki
# In short: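 CRTH2-expressing K562 membranes (20 μg/well) in 50 mM Tris/HCl pH 7.4 with 10 mM MgCl2 were incubated with [3H]-PGD2 for 60 min at room temperature, then filtered.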
# [1] = IC50 of PGD2 (60 nM)-induced cAMP increase, human DP1 receptor expressing Jurkut cell
# [2] = category of cAMP IC50, human DP1 receptor expressing Jurkut cell
# [3] = CRTH2 receptor binding, categorized AAAA/AAA
# CRTH2, sequence (Q9Y5Y4 whole entry): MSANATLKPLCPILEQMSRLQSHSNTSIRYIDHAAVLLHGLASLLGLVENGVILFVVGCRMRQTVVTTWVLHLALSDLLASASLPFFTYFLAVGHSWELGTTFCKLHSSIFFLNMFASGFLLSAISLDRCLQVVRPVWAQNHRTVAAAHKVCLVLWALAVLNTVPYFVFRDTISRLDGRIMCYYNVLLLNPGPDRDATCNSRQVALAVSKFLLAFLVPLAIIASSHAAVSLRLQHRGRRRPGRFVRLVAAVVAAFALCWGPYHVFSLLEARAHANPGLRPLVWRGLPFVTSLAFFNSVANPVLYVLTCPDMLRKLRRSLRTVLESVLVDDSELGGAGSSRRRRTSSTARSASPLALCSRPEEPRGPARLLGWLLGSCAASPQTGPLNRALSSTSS
# Human DP1 receptor, sequence (Q13258 whole entry): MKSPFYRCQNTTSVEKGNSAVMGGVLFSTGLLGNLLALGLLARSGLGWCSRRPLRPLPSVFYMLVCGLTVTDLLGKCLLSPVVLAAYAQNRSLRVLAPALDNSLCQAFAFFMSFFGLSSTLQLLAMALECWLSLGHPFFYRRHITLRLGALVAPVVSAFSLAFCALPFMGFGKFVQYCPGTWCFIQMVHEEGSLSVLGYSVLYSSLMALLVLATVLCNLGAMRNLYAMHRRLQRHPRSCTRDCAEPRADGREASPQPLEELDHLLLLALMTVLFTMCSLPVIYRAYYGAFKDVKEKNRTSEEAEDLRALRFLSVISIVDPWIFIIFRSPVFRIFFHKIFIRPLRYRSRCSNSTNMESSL
# DP receptor, sequence (Q13258 whole entry): as above
Compound,IC50 (DP receptor) [µM],IC50 (Human DP1 receptor; [1]) [µM],IC50 (Human DP1 receptor; [2]) [µM],Ki (CRTH2; [3]) [µM],Ki (CRTH2) [µM]
CO/N=C/[C@H]1C[C@@H](n2nc(CC(=O)O)c3ccc(F)cc32)CN1S(=O)(=O)c1ccc(OC(C)C)cc1 [Compound I-19],0.26,0.056,< 0.1,< 0.1,0.062
CC(C)Oc1ccc(S(=O)(=O)N2C[C@H](n3nc(CC(=O)O)c4ccc(F)cc43)C[C@@H]2Cn2cccn2)cc1 [Compound I-21],0.18,0.059,< 0.1,< 0.1,0.01
C[C@@H]1CN(S(=O)(=O)c2ccc(OC(F)(F)F)cc2)C[C@@H]1n1nc(CC(=O)O)c2ccc(Cl)cc21 [Compound I-142],0.092,0.0099,< 0.1,< 0.1,0.011
CC(C)Oc1ccc(S(=O)(=O)N2C[C@@H](C)[C@@H](n3cc(CC(=O)O)c4ccc(F)cc43)C2)cc1 [Compound I-144],0.082,0.0047,< 0.1,< 0.1,0.0031
CCOc1ccc(S(=O)(=O)N2C[C@@H](C)[C@@H](n3nc(CC(=O)O)c4c(F)cccc43)C2)cc1 [Compound I-150],0.041,0.02,< 0.1,< 0.1,0.099
CC(C)Oc1ccc(S(=O)(=O)N2C[C@@H](C)[C@H](n3nc(CC(=O)O)c4cc(Br)c(F)cc43)C2)cc1 [Compound I-156],0.11,0.003,< 0.1,0.1 to 5,–
CCOc1ccc(S(=O)(=O)N2C[C@@H](C)[C@@H](n3nc(CC(=O)O)c4cc(C#N)ccc43)C2)cn1 [Compound I-159],0.068,0.14,0.1 to 5,0.1 to 5,–
CCOc1ccc(S(=O)(=O)N2C[C@H](n3nc(CC(=O)O)c4ccccc43)C[C@@H]2C(N)=O)cc1 [Compound I-319],–,–,0.1 to 5,0.1 to 5,–
CCOc1ccc(S(=O)(=O)N2C[C@H](n3nc(CC(=O)O)c4ccccc43)C[C@H]2C#N)cc1 [Compound I-320],–,–,< 0.1,< 0.1,–
C=CCOC[C@H]1C[C@@H](n2nc(CC(=O)O)c3ccc(F)cc32)CN1S(=O)(=O)c1ccc(OC(C)C)cc1 [Compound I-323],–,–,0.1 to 5,0.1 to 5,–
CCOc1ccc(S(=O)(=O)N2C[C@@H](C)[C@@H](n3nc(CC(=O)O)c4ccccc43)C2)c([N+](=O)[O-])c1 [Compound I-324],–,–,< 0.1,< 0.1,–
CC#CCOC[C@H]1C[C@@H](n2nc(CC(=O)O)c3ccc(F)cc32)CN1S(=O)(=O)c1ccc(OC(C)C)cc1 [Compound I-326],–,–,0.1 to 5,0.1 to 5,–
CCCOC[C@H]1C[C@@H](n2nc(CC(=O)O)c3ccc(F)cc32)CN1S(=O)(=O)c1ccc(OC(C)C)cc1 [Compound I-327],–,–,0.1 to 5,0.1 to 5,–
CCOc1ccc(S(=O)(=O)N2C[C@@H](C)[C@@H](n3cc(CC(=O)O)c4ccc(-c5cnn(C)c5)cc43)C2)cc1 [Compound I-328],–,–,0.1 to 5,0.1 to 5,–
CCOc1ccc(S(=O)(=O)N2C[C@@H](C)[C@@H](n3c(C)c(CC(=O)O)c4ccccc43)C2)cn1 [Compound I-330],–,–,< 0.1,< 0.1,–
CCOc1ccc(S(=O)(=O)N2C[C@H](n3nc(CC(=O)O)c4ccc(F)cc43)C(C)(C)C2)cc1 [Compound I-331],–,–,< 0.1,< 0.1,–
CCOc1ccc(S(=O)(=O)N2C[C@H](n3nc(CC(=O)O)c4ccccc43)[C@H](C)[C@H]2C#N)cc1 [Compound I-332],–,–,0.1 to 5,< 0.1,–
CCOc1ccc(S(=O)(=O)N2C[C@H](n3nc(CC(=O)O)c4ccccc43)[C@H](C)[C@@H]2C#N)cc1 [Compound I-333],–,–,< 0.1,< 0.1,–
CC(C)Oc1ccc(S(=O)(=O)N2C[C@H](n3nc(CC(=O)O)c4ccc(F)cc43)C[C@@H]2COc2nc3ccccc3s2)cc1 [Compound I-334],–,–,< 0.1,0.1 to 5,–

# Continued, values first:
IC50 (DP receptor) [µM],IC50 (Human DP1 receptor; [1]) [µM],IC50 (Human DP1 receptor; [2]) [µM],Ki (CRTH2; [3]) [µM],Ki (CRTH2) [µM],Compound
–,–,< 0.1,0.1 to 5,–,CCOc1ccc(S(=O)(=O)N2C[C@@H](C)[C@@H](n3nc(C(F)C(=O)O)c4ccccc43)C2)cc1 (stereo partly drawn) [Compound I-338]
–,–,0.1 to 5,0.1 to 5,–,CCOc1ccc(S(=O)(=O)N2C[C@@H](C)[C@@H](n3nc(Cc4cc(O)no4)c4ccccc43)C2)cc1 [Compound I-341]
–,–,0.1 to 5,0.1 to 5,–,CC(C)Oc1ccc(S(=O)(=O)N2C[C@H](n3nc(CC(=O)O)c4ccc(F)cc43)C[C@@H]2COCCCO)cc1 [Compound I-342]
–,–,< 0.1,< 0.1,–,CC(C)Oc1ccc(S(=O)(=O)N2C[C@H](n3nc(CC(=O)O)c4ccc(F)cc43)C[C@@H]2CCc2ccccc2)cc1 [Compound I-343]
–,–,< 0.1,0.1 to 5,–,COc1ccccc1OC[C@H]1C[C@@H](n2nc(CC(=O)O)c3ccc(F)cc32)CN1S(=O)(=O)c1ccc(OC(C)C)cc1 [Compound I-344]
–,–,0.1 to 5,0.1 to 5,–,CC(C)Oc1ccc(S(=O)(=O)N2C[C@H](n3nc(CC(=O)O)c4ccc(F)cc43)CC2c2cccnc2)cc1 (stereo partly drawn) [Compound I-345]
–,–,< 0.1,< 0.1,–,CC(C)Oc1ccc(S(=O)(=O)N2C[C@H](n3nc(CC(=O)O)c4ccc(F)cc43)C[C@@H]2COc2cccc(O)c2)cc1 [Compound I-346]
–,–,< 0.1,0.1 to 5,–,CC(C)Oc1ccc(S(=O)(=O)N2C[C@H](n3nc(CC(=O)O)c4ccc(F)cc43)C[C@@H]2COc2ccc(O)cc2)cc1 [Compound I-347]
–,–,< 0.1,< 0.1,–,CC(C)Oc1ccc(S(=O)(=O)N2C[C@H](n3nc(CC(=O)O)c4ccc(F)cc43)C[C@@H]2Cc2ccccc2)cc1 [Compound I-348]
–,–,< 0.1,0.1 to 5,–,CC(C)Oc1ccc(S(=O)(=O)N2C[C@H](n3nc(CC(=O)O)c4ccccc43)C[C@@H]2Cc2ccccc2)cc1 [Compound I-349]
–,–,0.1 to 5,< 0.1,–,CC(C)Oc1ccc(S(=O)(=O)N2C[C@H](n3nc(CC(=O)O)c4ccc(F)cc43)C[C@H]2c2ccccn2)cc1 [Compound I-350]
–,–,0.1 to 5,0.1 to 5,–,CC(C)Oc1ccc(S(=O)(=O)N2C[C@H](n3nc(CC(=O)O)c4ccc(F)cc43)C[C@@H]2c2ccccn2)cc1 [Compound I-351]
–,–,0.1 to 5,0.1 to 5,–,CCOc1ccc(S(=O)(=O)N2C[C@H](n3nc(CC(=O)O)c4ccccc43)C[C@@H]2CC2COC2)cc1 [Compound I-352]
–,–,< 0.1,0.1 to 5,–,CSC[C@H]1C[C@@H](n2nc(CC(=O)O)c3ccc(F)cc32)CN1S(=O)(=O)c1ccc(OC(C)C)cc1 [Compound I-354]
–,–,0.1 to 5,0.1 to 5,–,CC(C)Oc1ccc(S(=O)(=O)N2C[C@H](n3nc(CC(=O)O)c4ccc(F)cc43)C[C@@H]2CS(C)(=O)=O)cc1 [Compound I-355]
–,–,0.1 to 5,< 0.1,–,CCOc1ccc(S(=O)(=O)N2C[C@H](n3nc(CC(=O)O)c4ccccc43)C(C)(C)C2)cc1 [Compound I-356]
–,–,0.1 to 5,0.1 to 5,–,CC(C)Oc1ccc(S(=O)(=O)N2C[C@H](n3nc(CC(=O)O)c4ccc(F)cc43)C[C@H]2c2ccccn2)cc1 [Compound I-357]
–,–,0.1 to 5,0.1 to 5,–,CC(C)Oc1ccc(S(=O)(=O)N2C[C@H](n3nc(CC(=O)O)c4ccc(F)cc43)C[C@@H]2c2ccccn2)cc1 [Compound I-358]
–,–,0.1 to 5,< 0.1,–,CC(C)Oc1ccc(S(=O)(=O)N2C[C@H](n3nc(CC(=O)O)c4ccc(F)cc43)C[C@H]2c2ccccc2)cc1 [Compound I-359]
–,–,< 0.1,< 0.1,0.03,CC(C)Oc1ccc(S(=O)(=O)N2C[C@H](n3nc(CC(=O)O)c4ccc(F)cc43)C[C@@H]2c2ccccc2)cc1 [Compound I-360]
–,–,0.1 to 5,0.1 to 5,–,CC(C)Oc1ccc(S(=O)(=O)N2C[C@H](n3nc(CC(=O)O)c4ccc(F)cc43)C[C@@H]2c2ccncc2)cc1 [Compound I-361]
–,–,0.1 to 5,0.1 to 5,–,CC(C)Oc1ccc(S(=O)(=O)N2C[C@H](n3nc(CC(=O)O)c4ccc(F)cc43)C[C@H]2c2ccncc2)cc1 [Compound I-362]
–,–,0.1 to 5,0.1 to 5,0.17,CC(C)Oc1ccc(S(=O)(=O)N2C[C@H](n3nc(CC(=O)O)c4ccc(F)cc43)C[C@@H]2c2ncc[nH]2)cc1 [Compound I-363]
–,–,0.1 to 5,0.1 to 5,–,Cc1noc([C@H]2C[C@@H](n3nc(CC(=O)O)c4ccc(F)cc43)CN2S(=O)(=O)c2ccc(OC(C)C)cc2)n1 [Compound I-364]
–,–,< 0.1,0.1 to 5,–,CC(C)Oc1ccc(S(=O)(=O)N2C[C@H](n3nc(CC(=O)O)c4ccc(F)cc43)C[C@@H]2COc2ccccc2)cc1 [Compound I-365]
–,–,< 0.1,0.1 to 5,–,CC(C)Oc1ccc(S(=O)(=O)N2C[C@H](n3nc(CC(=O)O)c4ccc(F)cc43)C[C@@H]2COc2ccc(F)cc2)cc1 [Compound I-366]
